# Experiment: physchem
# Format: physicochemical
# Conditions: organic solvent or mixture
compound,measurement,value
"CC1(C)CC=C(c2nc(C3CC(C)(C)OC(C)(C)C3)ccc2NC(=O)c2nc(C#N)c[nH]2)CC1 [Compound A, 4-cyano-N-[2-(4,4-dimethylcyclohex-1-en-1-yl)-6-(2,2,6,6-tetramethyltetrahydro-2H-pyran-4-yl)pyridin-3-yl]-1H-imidazole-2-carboxamide]",solubility,~130 mg/mL

# From patent US10858348B2, “Salt forms of 4-cyano-N-(4,4-dimethylcyclohex-1-en-1-yl)-6-(2,2,6,6-Tetr amethyltetrahydro-2H-pyran-4-yl)pyridin-3-yl)-1H-imidazole-2-carboximide” (Janssen Pharmaceutica NV, priority 2016, dated 2020)
